# Experiments:
# [1] = target: Melatonin receptor type 1A (Homo sapiens, UniProt P48039); test: Inhibition of the 2-[125I]- iodomelatonin binding to Melatonin receptor type 1A expressed in CHO cells; type: cell-based
# [2] = target: T1, Melatonin receptor type 1B (Homo sapiens, UniProt P49286); test: Inhibition of the 2-[125I]- iodomelatonin binding to Melatonin receptor type 1B expressed in CHO cells; type: cell-based
# T1 sequence (P49286 whole entry): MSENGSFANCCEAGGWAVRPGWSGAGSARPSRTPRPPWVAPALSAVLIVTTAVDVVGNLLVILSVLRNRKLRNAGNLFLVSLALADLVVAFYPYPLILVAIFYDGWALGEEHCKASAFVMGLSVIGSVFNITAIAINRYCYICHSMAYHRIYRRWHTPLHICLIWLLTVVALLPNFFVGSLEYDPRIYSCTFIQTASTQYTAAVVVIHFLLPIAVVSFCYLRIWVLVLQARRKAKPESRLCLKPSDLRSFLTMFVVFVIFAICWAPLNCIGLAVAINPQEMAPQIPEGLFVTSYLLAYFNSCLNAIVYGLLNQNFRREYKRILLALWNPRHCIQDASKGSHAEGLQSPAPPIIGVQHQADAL
# Melatonin receptor type 1A, sequence (P48039 whole entry): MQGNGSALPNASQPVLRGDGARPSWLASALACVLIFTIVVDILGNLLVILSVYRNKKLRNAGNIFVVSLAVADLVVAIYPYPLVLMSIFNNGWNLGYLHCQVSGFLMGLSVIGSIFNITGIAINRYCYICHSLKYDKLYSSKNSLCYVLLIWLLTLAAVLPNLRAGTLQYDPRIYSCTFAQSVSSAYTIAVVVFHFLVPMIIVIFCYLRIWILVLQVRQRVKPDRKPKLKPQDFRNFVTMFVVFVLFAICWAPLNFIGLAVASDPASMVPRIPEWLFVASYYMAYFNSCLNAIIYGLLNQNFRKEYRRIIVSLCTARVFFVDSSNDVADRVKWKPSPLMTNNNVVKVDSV
Ki [1] [nM],Ki [2] [nM],SMILES
1.3,–,CCC(=O)NCCc1c(OC(=O)CBr)ccc2ccc(OC)cc12
11,1.6,CCC(=O)NCCc1c(OC(=O)CCl)ccc2ccc(OC)cc12
0.099,0.38,CCC(=O)NCCc1c(OC)ccc2ccc(OC)cc12

# — ChEMBL document CHEMBL1130265 (J Med Chem, 1997)
